# Measurements: patent US10919935B2, “Antimicrobial peptide derived from myxinidin peptide and uses thereof” (INDUSTRY-ACADEMIC COOPERATION FOUNDATION, CHOSUN UNIVERSITY, priority 2015, dated 2021)
# Residues, ends and D or L forms follow the SMILES beside them.
# Experiments:
# S. typhimurium 8009 = assay: MIC at salt concentration (Example 3); assay type: cell-based, Salmonella typhimurium
# Method: (§1) To compare the antimicrobial activity of the peptide produced by the method of Example 1, the inventors of the present invention measured the minimum growth inhibitory concentration (MIC), which is minimum concentration of the peptide showing no dissociation of bacterial cells, at salt concentration.
# (§2) Specifically, the bacterial strain described in the above Table 2 was cultured in each medium to a mid-log phase. Then, after dilution to bacterial cell concentration of 2×10^5 cells/100 μl, the cells were inoculated to a microtiter plate (NUNC, USA). Thereafter, myxinidin 1, myxinidin 2, or myxinidin 3 peptides which have been synthesized in Example 1 above was diluted, 1/2 times for each, with BSA+150 mM sodium chloride (NaCl) solution, physiological saline (PBS) solution, or 10 mM sodium phosphate (SP) solution in a 96-well plate. After adding the cells to a plate, the cells were cultured for 12 hours at 37° C. By using a microtiter plate reader (Merck Elisa reader, Germany), the absorbance was measured at a wavelength of 600 nm to determine the MIC value of each bacterial strain. As a control group, myxinidin as a mother peptide was subjected to the same processes as above and the MIC value of each bacterial strain was obtained.
# S. typhimurium = assay: MIC at salt concentration (Example 3); assay type: cell-based, Salmonella typhimurium
# Method: as §1, §2
# S. typhimurium 8013 = assay: MIC at salt concentration (Example 3); assay type: cell-based, Salmonella typhimurium
# Method: as §1, §2
# S. aureus 3709 = assay: MIC at salt concentration (Example 3); assay type: cell-based, Staphylococcus aureus
# Method: as §1, §2
# in vitro = assay type: cell-based; conditions: human, NHK cells (normal human keratinocytes)
# Method: To determine the cytotoxicity of the peptide produced by the method of Example 1 in normal cell line, toxicity was measured by using NHK cells (Normal Human Keratinocyte cells).
# Specifically, NHK cells which have been cultured in Epilife medium with 60 μM calcium (Gibco, USA) containing 10% HKGS (Human Keratinocyte Growth Supplement) (Gibco, USA) were aliquoted in a 96-well plate to have 1×10^4 cells per well. After culturing them for 24 hours, the cells were subjected to a treatment with myxinidin, myxinidin 1, myxinidin 2, or myxinidin 3 peptide, each at concentration of 3.125, 6.25, 12.5, or 25.0 μM/well, followed by reaction for 24 hours in a 5% CO2 incubator. After the culture, a reaction solution containing 5 mg/ml MTT (Thiazolyl Blue Tetrazolium Bromide) dissolved in physiological saline (PBS) was added in an amount of 20 μl to each well and allowed to react for 4 hours. After that, the supernatant was removed, and, by dissolving MTT crystals that are formed by adding 200 μl of DMSO, the absorbance at 560 nm was measured to determine the cell survival ability.
# L. monocytogenes [1] = assay: MIC at salt concentration (Example 3); assay type: cell-based, Listeria monocytogenes
# Method: as §1, §2
# Escherichia coli 1238 = assay: MIC at salt concentration (Example 3); assay type: cell-based
# Method: as §1, §2
# Escherichia coli 1229 = assay: MIC at salt concentration (Example 3); assay type: cell-based
# Method: as §1, §2
# Escherichia coli = assay: MIC at salt concentration (Example 3); assay type: cell-based
# Method: as §1, §2
# L. monocytogenes [2] = assay: Anti-biofilm activity (crystal violet); assay type: cell-based, Listeria monocytogenes
# Method: To compare the antimicrobial activity of the peptide produced by the method of Example 1, the inventors of the present invention measured the biofilm inhibitory concentration value of the peptide showing no dissociation of bacterial cells.
# Specifically, the Gram-negative bacteria and Gram-positive bacteria among the bacterial strains described in the above Table 2 were cultured in each medium to a mid-log phase. Then, after dilution to bacterial cell concentration of 5×10^5 cells/100 μl, the cells were inoculated to a microtiter plate (NUNC, USA). Thereafter, myxinidin 1, myxinidin 2, or myxinidin 3 peptides which have been synthesized in Example 1 above was diluted, 1/10 times for each, with physiological saline (PBS) solution in a 96-well plate. After adding the cells to a plate, the cells were cultured for 12 hours at 37° C. After removing the supernatant, the cells were fixed with 100% methanol and reacted for 2 hours with Crystal violet staining solution followed by rinsing for 3 times. Then, after dissolving in 95% ethanol, the absorbance was measured at a wavelength of 595 nm by using a microtiter plate reader (Merck Elisa reader, Germany) to determine the biofilm inhibitory concentration value of each bacterial strain. As a control group, myxinidin as a mother peptide was subjected to the same processes as above and the biofilm inhibitory concentration value of each bacterial strain was obtained.
# TNF-α, IL-6, and IL-8 = assay: ELISA of cytokines and chemokine in infected skin keratinocyte cells; assay type: cell-based, human; conditions: keratinocytes infected with S. aureus, A. baumannii or P. aeruginosa; peptide at 2 times MIC
# Method: To specifically determine the anti-inflammatory effect of the synthetic peptide of the present invention, infection with Acinetobacter baumannii, Pseudomonas aeruginosa, or Staphylococcus aureus and a treatment with myxinidin 2 and myxinidin 3 synthetic peptides were carried out, and interleukin-6 (IL-6) and interleukin-8 (IL-8), which are a cytokine and a chemokine, and tumor necrosis factor alpha (TNF-α) were analyzed by enzyme-linked immunosorbent assay.
# Specifically, interleukin-6, interleukin-8, and tumor necrosis factor-α were analyzed by a human immune assay kit. Human skin keratinocyte cells were infected with Staphylococcus aureus, Acinetobacter baumannii, or Pseudomonas aeruginosa, which are the bacterial strain having tolerance to antibiotics, followed by a treatment with the peptide at a concentration that is 2 times higher than the minimum inhibitory concentration to have a reaction. After that, only the supernatant was collected and subjected to an enzyme-linked immunosorbent assay.
# [3] = NaCl (BSA+150 mM sodium chloride)
Compound,Antimicrobial activity (MIC) according to salt concentration (S. typhimurium 8009; [3]),Antimicrobial activity (MIC) according to salt concentration (S. typhimurium 8009; PBS),Antimicrobial activity (MIC) according to salt concentration (S. typhimurium 8009; SP (10 mM sodium phosphate)),Antimicrobial activity (MIC) according to salt concentration (S. typhimurium; [3]),Antimicrobial activity (MIC) according to salt concentration (S. typhimurium; PBS),Antimicrobial activity (MIC) according to salt concentration (S. typhimurium; SP (10 mM sodium phosphate)),Antimicrobial activity (MIC) according to salt concentration (S. typhimurium 8013; [3]),Antimicrobial activity (MIC) according to salt concentration (S. typhimurium 8013; PBS),Antimicrobial activity (MIC) according to salt concentration (S. typhimurium 8013; SP (10 mM sodium phosphate)),Antimicrobial activity (MIC) according to salt concentration (S. aureus 3709; [3]),Antimicrobial activity (MIC) according to salt concentration (S. aureus 3709; PBS),Antimicrobial activity (MIC) according to salt concentration (S. aureus 3709; SP (10 mM sodium phosphate)),"viability at 24 h, 3.125 µM (in vitro)","viability at 24 h, 6.25 µM (in vitro)","viability at 24 h, 12.5 µM (in vitro)","viability at 24 h, 25 µM (in vitro)",Antimicrobial activity (MIC) according to salt concentration (L. monocytogenes [1]; [3]),Antimicrobial activity (MIC) according to salt concentration (L. monocytogenes [1]; PBS),Antimicrobial activity (MIC) according to salt concentration (L. monocytogenes [1]; SP (10 mM sodium phosphate)),Antimicrobial activity (MIC) according to salt concentration (Escherichia coli 1238; [3]),other results
"CC[C@H](C)[C@H](NC(=O)CN)C(=O)N[C@@H](Cc1c[nH]cn1)C(=O)N[C@@H](Cc1c[nH]cn1)C(=O)N[C@H](C(=O)N[C@@H](CC(C)C)C(=O)N[C@@H](CCCCN)C(=O)N[C@@H](Cc1ccc(O)cc1)C(=O)NCC(=O)N[C@@H](CCCCN)C(=O)N1CCC[C@H]1C(=O)N[C@@H](CO)C(N)=O)[C@@H](C)CC [Myxinidin 1, GIHHILKYGKPS-NH2] (H-GIHHILKYGKPS-NH2; N-terminus assumed)",>32,>32,>32,>32,>32,>32,>32,>32,>32,>32,>32,>32,100%,96%,96%,88%,>32,>32,>32,>32,Antimicrobial activity (MIC) according to salt concentration (Escherichia coli 1238; PBS): >32; Antimicrobial activity (MIC) according to salt concentration (Escherichia coli 1238; SP (10 mM sodium phosphate)): >32; Antimicrobial activity (MIC) according to salt concentration (Escherichia coli 1229; [3]): >32; Antimicrobial activity (MIC) according to salt concentration (Escherichia coli 1229; PBS): >32; Antimicrobial activity (MIC) according to salt concentration (Escherichia coli 1229; SP (10 mM sodium phosphate)): >32; Antimicrobial activity (MIC) according to salt concentration (Escherichia coli; [3]): >32; Antimicrobial activity (MIC) according to salt concentration (Escherichia coli; PBS): >32; Antimicrobial activity (MIC) according to salt concentration (Escherichia coli; SP (10 mM sodium phosphate)): >32; Biofilm forming ability (L. monocytogenes [2]; peptide 0.25 μM): 100%; Biofilm forming ability (L. monocytogenes [2]; peptide 0.5 μM): 100%; Biofilm forming ability (L. monocytogenes [2]; peptide 1 μM): 100%; Biofilm forming ability (L. monocytogenes [2]; peptide 2 μM): 100%; Biofilm forming ability (L. monocytogenes [2]; peptide 4 μM): 99%; Biofilm forming ability (L. monocytogenes [2]; peptide 8 μM): 98%; Biofilm forming ability (L. monocytogenes [2]; peptide 16 μM): 97%; Biofilm forming ability (L. monocytogenes [2]; peptide 32 μM): 93%
"CC[C@H](C)[C@H](NC(=O)[C@H](Cc1c[nH]c2ccccc12)NC(=O)[C@H](CCCCN)NC(=O)[C@@H](NC(=O)[C@@H](N)CCCCN)[C@@H](C)CC)C(=O)N[C@@H](CC(C)C)C(=O)N[C@@H](CCCCN)C(=O)N[C@@H](Cc1ccc(O)cc1)C(=O)N[C@@H](Cc1c[nH]c2ccccc12)C(=O)N[C@@H](CCCCN)C(=O)N[C@@H](Cc1c[nH]c2ccccc12)C(=O)N[C@@H](CO)C(N)=O [Myxinidin 2, KIKWILKYWKWS-NH2] (H-KIKWILKYWKWS-NH2; N-terminus assumed)",8,4,4,2,4,2,32,8,4,8,8,4,100%,100%,98%,75%,4,8,8,8,"Antimicrobial activity (MIC) according to salt concentration (Escherichia coli 1238; PBS): 2; Antimicrobial activity (MIC) according to salt concentration (Escherichia coli 1238; SP (10 mM sodium phosphate)): 4; Antimicrobial activity (MIC) according to salt concentration (Escherichia coli 1229; [3]): 8; Antimicrobial activity (MIC) according to salt concentration (Escherichia coli 1229; PBS): 2; Antimicrobial activity (MIC) according to salt concentration (Escherichia coli 1229; SP (10 mM sodium phosphate)): 2; Antimicrobial activity (MIC) according to salt concentration (Escherichia coli; [3]): 8; Antimicrobial activity (MIC) according to salt concentration (Escherichia coli; PBS): 4; Antimicrobial activity (MIC) according to salt concentration (Escherichia coli; SP (10 mM sodium phosphate)): 2; Expression of cytokine and chemokine (IL-6, TNF-α, IL-8; ELISA) (TNF-α, IL-6, and IL-8): has decreased; Biofilm forming ability (L. monocytogenes [2]; peptide 0.25 μM): 100%; Biofilm forming ability (L. monocytogenes [2]; peptide 0.5 μM): 100%; Biofilm forming ability (L. monocytogenes [2]; peptide 1 μM): 100%; Biofilm forming ability (L. monocytogenes [2]; peptide 2 μM): 100%; Biofilm forming ability (L. monocytogenes [2]; peptide 4 μM): 99%; Biofilm forming ability (L. monocytogenes [2]; peptide 8 μM): 93%; Biofilm forming ability (L. monocytogenes [2]; peptide 16 μM): 45%; Biofilm forming ability (L. monocytogenes [2]; peptide 32 μM): 33%"
"CC[C@H](C)[C@H](NC(=O)[C@H](Cc1c[nH]c2ccccc12)NC(=O)[C@H](CCCNC(=N)N)NC(=O)[C@@H](NC(=O)[C@@H](N)CCCNC(=N)N)[C@@H](C)CC)C(=O)N[C@@H](CC(C)C)C(=O)N[C@@H](CCCNC(=N)N)C(=O)N[C@@H](Cc1ccc(O)cc1)C(=O)N[C@@H](Cc1c[nH]c2ccccc12)C(=O)N[C@@H](CCCNC(=N)N)C(=O)N[C@@H](Cc1c[nH]c2ccccc12)C(=O)N[C@@H](CO)C(N)=O [Myxinidin 3, RIRWILRYWRWS-NH2] (H-RIRWILRYWRWS-NH2; N-terminus assumed)",4,4,2,2,2,2,8,4,2,4,4,4,100%,100%,100%,100%,2,4,4,8,"Antimicrobial activity (MIC) according to salt concentration (Escherichia coli 1238; PBS): 4; Antimicrobial activity (MIC) according to salt concentration (Escherichia coli 1238; SP (10 mM sodium phosphate)): 2; Antimicrobial activity (MIC) according to salt concentration (Escherichia coli 1229; [3]): 2; Antimicrobial activity (MIC) according to salt concentration (Escherichia coli 1229; PBS): 2; Antimicrobial activity (MIC) according to salt concentration (Escherichia coli 1229; SP (10 mM sodium phosphate)): 2; Antimicrobial activity (MIC) according to salt concentration (Escherichia coli; [3]): 8; Antimicrobial activity (MIC) according to salt concentration (Escherichia coli; PBS): 2; Antimicrobial activity (MIC) according to salt concentration (Escherichia coli; SP (10 mM sodium phosphate)): 2; Expression of cytokine and chemokine (IL-6, TNF-α, IL-8; ELISA) (TNF-α, IL-6, and IL-8): has decreased; Biofilm forming ability (L. monocytogenes [2]; peptide 0.25 μM): 94%; Biofilm forming ability (L. monocytogenes [2]; peptide 0.5 μM): 87%; Biofilm forming ability (L. monocytogenes [2]; peptide 1 μM): 87%; Biofilm forming ability (L. monocytogenes [2]; peptide 2 μM): 83%; Biofilm forming ability (L. monocytogenes [2]; peptide 4 μM): 22%; Biofilm forming ability (L. monocytogenes [2]; peptide 8 μM): 21%; Biofilm forming ability (L. monocytogenes [2]; peptide 16 μM): 18%; Biofilm forming ability (L. monocytogenes [2]; peptide 32 μM): 16%"
